pIC50: −log10 of the molar value.
Tests used:
Assay type in all cases: functional, cell-based
HCC2157 = assay: cells; settings: Homo sapiens;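 note: growth inhibition of the cancer cell line, read out as cell viability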
Description: SANGER: Inhibition of human HCC2157 cell growth in a cell viability assay.

A253 cell line = assay: cells; settings: Homo sapiens;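 note: growth inhibition of A253 cells, read out with a cell viability assay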
Description: SANGER: Inhibition of human A253 cell growth in a cell viability assay.

AN3-CA = assay: cells; settings: Homo sapiens;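 note: growth inhibition of human AN3-CA cells measured by a cell viability assay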
Description: SANGER: Inhibition of human AN3-CA cell growth in a cell viability assay.

BHT-101 = assay: cells; settings: Homo sapiens
Description: SANGER: Inhibition of human BHT-101 cell growth in a cell viability assay.

CHP-212 = assay: cells; settings: Homo sapiens
Description: SANGER: Inhibition of human CHP-212 cell growth in a cell viability assay.

NCI-H1703 = assay: cells; settings: Homo sapiens;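 note: growth inhibition of NCI-H1703 cells, read out via a cell viability assay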
Description: SANGER: Inhibition of human NCI-H1703 cell growth in a cell viability assay.

NCI-H524 = assay: cells; settings: Homo sapiens;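 note: growth inhibition of human NCI-H524 cells, read out through a cell viability assay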
Description: SANGER: Inhibition of human NCI-H524 cell growth in a cell viability assay.

ME-180 = assay: cells; settings: Homo sapiens;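 note: cell viability assay measuring growth inhibition of ME-180 cells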
Description: SANGER: Inhibition of human ME-180 cell growth in a cell viability assay.

DK-MG = assay: cells; settings: Homo sapiens;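 note: growth inhibition of DK-MG cells, read out with a cell viability assay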
Description: SANGER: Inhibition of human DK-MG cell growth in a cell viability assay.

RL = assay: cells; settings: Homo sapiens
Description: SANGER: Inhibition of human RL cell growth in a cell viability assay.

KU-19-19 = assay: cells; settings: Homo sapiens
Description: SANGER: Inhibition of human KU-19-19 cell growth in a cell viability assay.

NCI-H1563 = assay: cells; settings: Homo sapiens;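 note: growth inhibition of human NCI-H1563 cells, read out with a cell viability assay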
Description: SANGER: Inhibition of human NCI-H1563 cell growth in a cell viability assay.

PA-1 = assay: cells; settings: Homo sapiens;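 note: IC50 for suppression of PA-1 cell proliferation, determined with a cell viability read-out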
Description: SANGER: Inhibition of human PA-1 cell growth in a cell viability assay.

REH = assay: cells; settings: Homo sapiens;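 note: growth inhibition of REH cells determined with a cell viability read-out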
Description: SANGER: Inhibition of human REH cell growth in a cell viability assay.

SNU-423 = assay: cells; settings: Homo sapiens
Description: SANGER: Inhibition of human SNU-423 cell growth in a cell viability assay.

PANC-08-13 = assay: cells; settings: Homo sapiens
Description: SANGER: Inhibition of human PANC-08-13 cell growth in a cell viability assay.

NCI-H1436 = assay: cells; settings: Homo sapiens;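 note: growth suppression of human NCI-H1436 cells, determined with a cell viability readout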
Description: SANGER: Inhibition of human NCI-H1436 cell growth in a cell viability assay.

NCI-H1694 = assay: cells; settings: Homo sapiens;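 note: cell viability assay measuring inhibition of growth in human NCI-H1694 cells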
Description: SANGER: Inhibition of human NCI-H1694 cell growth in a cell viability assay.

G-361 = assay: cells; settings: Homo sapiens
T47D = assay: cells; settings: Homo sapiens;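 note: growth inhibition of human T47D cells, measured with a cell viability assay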
Description: SANGER: Inhibition of human T47D cell growth in a cell viability assay.

PC-14 = assay: cells; settings: Homo sapiens;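 note: cell viability assay measuring inhibition of PC-14 cell growth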
Description: SANGER: Inhibition of human PC-14 cell growth in a cell viability assay.

HCC70 = assay: cells; settings: Homo sapiens;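 note: cell viability assay measuring how strongly the compound suppresses proliferation of HCC70 cells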
Description: SANGER: Inhibition of human HCC70 cell growth in a cell viability assay.

A-375 = assay: cells; settings: Homo sapiens;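 note: growth inhibition of A375 cells, read out with a cell viability assay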
Description: SANGER: Inhibition of human A375 cell growth in a cell viability assay.

Panc1005 = assay: cells; settings: Homo sapiens;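 note: growth inhibition of human PANC-10-05 cells, measured by a cell viability assay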
Description: SANGER: Inhibition of human PANC-10-05 cell growth in a cell viability assay.

SCC-3 = assay: cells; settings: Homo sapiens;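 note: cell viability assay measuring inhibition of SCC-3 cell growth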
Description: SANGER: Inhibition of human SCC-3 cell growth in a cell viability assay.

DG-75 = assay: cells; settings: Homo sapiens;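 note: growth inhibition of DG-75 cells, read out with a cell viability assay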
Description: SANGER: Inhibition of human DG-75 cell growth in a cell viability assay.

SKG-IIIa = assay: cells; settings: Homo sapiens;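 note: cell growth inhibition, read out with a cell viability assay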
Description: SANGER: Inhibition of human SKG-IIIa cell growth in a cell viability assay.

KYSE-70 cell line = assay: cells; settings: Homo sapiens;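 note: cell viability assay read-out, with IC50 expressing suppression of KYSE-70 cell growth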
Description: SANGER: Inhibition of human KYSE-70 cell growth in a cell viability assay.

COR-L279 = assay: SANGER: Inhibition of human COR-L279 cell growth in a cell viability assay.
HSC-2 = assay: cells; settings: Homo sapiens;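 note: growth inhibition of human HSC-2 cells, read out by a cell viability assay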
Description: SANGER: Inhibition of human HSC-2 cell growth in a cell viability assay.

NCI-H441 = assay: cells; settings: Homo sapiens;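 note: growth inhibition of NCI-H441 cells, read out with a cell viability assay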
Description: SANGER: Inhibition of human NCI-H441 cell growth in a cell viability assay.

KYSE-180 = assay: cells; settings: Homo sapiens;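 note: growth inhibition of KYSE-180 cells, read out with a cell viability assay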
Description: SANGER: Inhibition of human KYSE-180 cell growth in a cell viability assay.

S-117 = assay: cells; settings: Homo sapiens
Description: SANGER: Inhibition of human S-117 cell growth in a cell viability assay.

NCI-H522 = assay: cells; settings: Homo sapiens;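 note: cell viability assay measuring growth inhibition of human NCI-H522 cells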
Description: SANGER: Inhibition of human NCI-H522 cell growth in a cell viability assay.

NY = assay: cells; settings: Homo sapiens
Description: SANGER: Inhibition of human NY cell growth in a cell viability assay.

AU565 = assay: cells; settings: Homo sapiens;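 note: cell viability assay measuring growth inhibition of human AU565 cells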
Description: SANGER: Inhibition of human AU565 cell growth in a cell viability assay.

COLO-792 = assay: cells; settings: Homo sapiens
Description: SANGER: Inhibition of human COLO-792 cell growth in a cell viability assay.

U-698-M = assay: cells; settings: Homo sapiens
Description: SANGER: Inhibition of human U-698-M cell growth in a cell viability assay.

Raji = assay: cells; settings: Homo sapiens;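 note: cell viability assay measuring inhibition of Raji cell growth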
Description: SANGER: Inhibition of human Raji cell growth in a cell viability assay.

CA46 = assay: cells; settings: Homo sapiens;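 note: growth inhibition of human CA46 cells, read out by a cell viability assay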
Description: SANGER: Inhibition of human CA46 cell growth in a cell viability assay.

YKG-1 = assay: cells; settings: Homo sapiens;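 note: cell growth inhibition, read out with a viability assay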
Description: SANGER: Inhibition of human YKG-1 cell growth in a cell viability assay.

A 172 = assay: cells; settings: Homo sapiens;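 note: growth inhibition of A172 cells, measured with a cell viability readout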
Description: SANGER: Inhibition of human A172 cell growth in a cell viability assay.

MIA PaCa-2 = assay: cells; settings: Homo sapiens;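 note: growth inhibition of MIA PaCa-2 cells, read out with a cell viability assay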
Description: SANGER: Inhibition of human MIA-PaCa-2 cell growth in a cell viability assay.

SW48 = assay: cells; settings: Homo sapiens;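 note: growth inhibition of SW48 cells, read out with a cell viability assay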
Description: SANGER: Inhibition of human SW48 cell growth in a cell viability assay.

KP-4 = assay: cells; settings: Homo sapiens;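 note: human KP-4 cells, with growth inhibition read out through a cell viability assay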
Description: SANGER: Inhibition of human KP-4 cell growth in a cell viability assay.

COLO-679 = assay: cells; settings: Homo sapiens
Description: SANGER: Inhibition of human COLO-679 cell growth in a cell viability assay.

SCC-4 = assay: cells; settings: Homo sapiens;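 note: growth inhibition of human SCC-4 cells, read out as cell viability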
Description: SANGER: Inhibition of human SCC-4 cell growth in a cell viability assay.

Detroit 562 = assay: cells; settings: Homo sapiens;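 note: growth inhibition of human Detroit 562 cells, read out by a cell viability assay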
Description: SANGER: Inhibition of human Detroit562 cell growth in a cell viability assay.

C3A = assay: cells; settings: Homo sapiens;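 note: growth inhibition of C3A human cells, quantified with a cell viability readout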
Description: SANGER: Inhibition of human C3A cell growth in a cell viability assay.

A673 = assay: cells; settings: Homo sapiens;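 note: growth inhibition of human A673 cells, read out through a cell viability assay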
Description: SANGER: Inhibition of human A673 cell growth in a cell viability assay.

NCI-H2347 = assay: cells; settings: Homo sapiens;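 note: growth inhibition of the cell line, read out with a cell viability assay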
Description: SANGER: Inhibition of human NCI-H2347 cell growth in a cell viability assay.

EFO-21 = assay: cells; settings: Homo sapiens;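 note: growth inhibition of EFO-21 cells measured with a viability assay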
Description: SANGER: Inhibition of human EFO-21 cell growth in a cell viability assay.

HCC1954 = assay: cells; settings: Homo sapiens;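 note: growth inhibition of human HCC1954 cells, read out with a cell viability assay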
Description: SANGER: Inhibition of human HCC1954 cell growth in a cell viability assay.

Ca-Ski = assay: cells; settings: Homo sapiens;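 note: cell viability assay measuring inhibition of Ca-Ski cell growth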
Description: SANGER: Inhibition of human Ca-Ski cell growth in a cell viability assay.

OVCAR-5 = assay: cells; settings: Homo sapiens;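 note: growth inhibition of human OVCAR-5 cells, read out with a cell viability assay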
Description: SANGER: Inhibition of human OVCAR-5 cell growth in a cell viability assay.

ST486 = assay: SANGER: Inhibition of human ST486 cell growth in a cell viability assay.
GDM-1 = assay: cells; settings: Homo sapiens;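 note: cell viability readout used to measure growth inhibition of human GDM-1 cells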
Description: SANGER: Inhibition of human GDM-1 cell growth in a cell viability assay.

NCI-H1963 = assay: cells; settings: Homo sapiens;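 note: cell growth inhibition of the human line, determined with a cell viability assay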
Description: SANGER: Inhibition of human NCI-H1963 cell growth in a cell viability assay.

PC-3 = assay: cells; settings: Homo sapiens;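 note: cell viability assay measuring growth inhibition of PC-3 cells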
Description: SANGER: Inhibition of human PC-3 cell growth in a cell viability assay.

MEL-HO = assay: cells; settings: Homo sapiens
Description: SANGER: Inhibition of human MEL-HO cell growth in a cell viability assay.

EFM-19 = assay: cells; settings: Homo sapiens;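 note: growth inhibition of human EFM-19 cells, measured in a cell viability assay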
Description: SANGER: Inhibition of human EFM-19 cell growth in a cell viability assay.

A2780 = assay: cells; settings: Homo sapiens;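 note: growth inhibition of A2780 cells, read out with a cell viability assay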
Description: SANGER: Inhibition of human A2780 cell growth in a cell viability assay.

CCNC(=O)c1noc(-c2cc(C(C)C)c(O)cc2O)c1-c1ccc(CN2CCOCC2)cc1 [LUMINESPIB]
pIC50 (HCC2157): 7.24
pIC50 (A253 cell line): 7.30
pIC50 (AN3-CA): 7.99
pIC50 (BHT-101): 7.23
pIC50 (CHP-212): 7.66
pIC50 (NCI-H1703): 7.21
pIC50 (NCI-H524): < 6.59
pIC50 (ME-180): 7.32
pIC50 (DK-MG): 7.12
pIC50 (RL): < 6.59
pIC50 (KU-19-19): 6.97
pIC50 (NCI-H1563): < 6.59
pIC50 (PA-1): 7.56
pIC50 (REH): 7.69
pIC50 (SNU-423): 7.98
pIC50 (PANC-08-13): 7.11
pIC50 (NCI-H1436): 6.66
pIC50 (NCI-H1694): < 6.59
pIC50 (G-361): 7.57
pIC50 (T47D): < 6.59
pIC50 (PC-14): 7.71
pIC50 (HCC70): 7.26
pIC50 (A-375): 7.66
pIC50 (Panc1005): 7.76
pIC50 (SCC-3): < 6.59
pIC50 (DG-75): < 6.59
pIC50 (SKG-IIIa): 6.75
pIC50 (KYSE-70 cell line): 7.42
pIC50 (COR-L279): 6.80
pIC50 (HSC-2): 8.29
pIC50 (NCI-H441): 6.96
pIC50 (KYSE-180): 8.23
pIC50 (S-117): 6.90
pIC50 (NCI-H522): 7.71
pIC50 (NY): 7.76
pIC50 (AU565): 6.93
pIC50 (COLO-792): 7.05
pIC50 (U-698-M): 7.13
pIC50 (Raji): < 6.59
pIC50 (CA46): 7.27
pIC50 (YKG-1): 7.94
pIC50 (A 172): 7.40
pIC50 (MIA PaCa-2): 7.82
pIC50 (SW48): 7.39
pIC50 (KP-4): 7.44
pIC50 (COLO-679): 7.51
pIC50 (SCC-4): 7.55
pIC50 (Detroit 562): 7.41
pIC50 (C3A): 7.61
pIC50 (A673): 6.98
pIC50 (NCI-H2347): 7.10
pIC50 (EFO-21): 7.05
pIC50 (HCC1954): < 6.59
pIC50 (Ca-Ski): 7.42
pIC50 (OVCAR-5): 7.74
pIC50 (ST486): 7.26
pIC50 (GDM-1): 8.08
pIC50 (NCI-H1963): 7.29
pIC50 (PC-3): 6.88
pIC50 (MEL-HO): 7.78
pIC50 (EFM-19): < 6.59
pIC50 (A2780): 7.77

C/C=C(/C)C(=O)O[C@H]1C(C)=C2[C@H]([C@@H]1OC(=O)CCCCCCC)[C@@](C)(OC(C)=O)C[C@H](OC(=O)CCC)[C@@]1(O)[C@H]2OC(=O)[C@@]1(C)O [THAPSIGARGIN]
pIC50 (HCC2157): 8.46
pIC50 (A253 cell line): 8.76
pIC50 (AN3-CA): > 8.70
pIC50 (BHT-101): 7.06
pIC50 (CHP-212): 8.52
pIC50 (NCI-H1703): 7.99
pIC50 (NCI-H524): 7.15
pIC50 (ME-180): < 6.29
pIC50 (DK-MG): 7.33
pIC50 (RL): < 6.29
pIC50 (KU-19-19): 7.10
pIC50 (NCI-H1563): 6.70
pIC50 (PA-1): 9.16
pIC50 (REH): 8.19
pIC50 (SNU-423): > 8.70
pIC50 (PANC-08-13): 7.62
pIC50 (NCI-H1436): < 6.29
pIC50 (NCI-H1694): 7.14
pIC50 (G-361): 7.97
pIC50 (T47D): < 6.29
pIC50 (PC-14): 8.10
pIC50 (HCC70): 7.65
pIC50 (A-375): > 8.70
pIC50 (Panc1005): 7.58
pIC50 (SCC-3): 7.38
pIC50 (DG-75): < 6.29
pIC50 (SKG-IIIa): < 6.29
pIC50 (KYSE-70 cell line): > 8.70
pIC50 (COR-L279): 7.44
pIC50 (HSC-2): 8.52
pIC50 (NCI-H441): 7.90
pIC50 (KYSE-180): 8.93
pIC50 (S-117): 7.39
pIC50 (NCI-H522): 8.27
pIC50 (NY): > 8.70
pIC50 (AU565): 8.92
pIC50 (COLO-792): 7.23
pIC50 (U-698-M): 7.11
pIC50 (Raji): 7.42
pIC50 (CA46): 8.53
pIC50 (YKG-1): 8.11
pIC50 (A 172): > 8.70
pIC50 (MIA PaCa-2): 8.48
pIC50 (SW48): 8.78
pIC50 (KP-4): 8.58
pIC50 (COLO-679): > 8.70
pIC50 (SCC-4): 7.98
pIC50 (Detroit 562): 8.60
pIC50 (C3A): 7.52
pIC50 (A673): 8.14
pIC50 (NCI-H2347): 7.99
pIC50 (EFO-21): 7.79
pIC50 (HCC1954): 7.60
pIC50 (Ca-Ski): 7.49
pIC50 (OVCAR-5): > 8.70
pIC50 (ST486): 8.75
pIC50 (GDM-1): 6.64
pIC50 (NCI-H1963): 7.18
pIC50 (PC-3): 8.10
pIC50 (MEL-HO): 8.72
pIC50 (EFM-19): < 6.29
pIC50 (A2780): > 8.70

— ChEMBL document CHEMBL1201861, “Genomics of Drug Sensitity in Cancer screening data, Wellcome Trust Sanger Institute”
